Experimental data as given in patent US20200330456A1, “NOVEL APPLICATION OF GZD824 AND PHARMACEUTICALLY ACCEPTABLE SALTS THEREOF IN TREATING DISEASES” (HEALTHQUEST PHARMA INC., priority 2016, published 2020).

Key:
SUPB15 cells = assay: Apoptosis kit (ANNEXIN V, PI) flow cytometry, SUPB15; assay type: cell-based; details: 3 μM, 1 μM, 24 hours, vs DMSO
Protocol: (§1) 1.2 After treating NALM6 and SUPB15 cells respectively with GZD824 (3 μM, 1 μM) and DMSO of different concentrations for 24 hours, apoptosis was detected using an apoptosis kit (ANNEXIN V, PI). Please refer to FIG. 2 for the results. After treating the two types of cells NALM6 and SUPB15 respectively with GZD824 of different concentrations (3 μM/L, 1 μM/L) for 24 hours, the cells were stained with the apoptosis kit (ANNEXIN V, PI), and apoptosis was detected with flow cytometry.

NALM6 cells = assay: Apoptosis kit (ANNEXIN V, PI) flow cytometry, NALM6; assay type: cell-based; details: 24 hours
Protocol: as §1
5.3 After treating NALM6 cells with GZD824, SRC suppressor (KX2-391), STAT3 suppressor (HO-3867) or DMSO for 24 hours, apoptosis was detected by using the apoptosis kit (ANNEXIN V, PI). The ratio of ANNEXIN V positive cells was analyzed by statistical methods. […] For the experimental results, please refer to FIG. 15.

BCL-XL gene expression = assay: Fluorescence quantitative PCR in NALM6 cells, BCL-XL; assay type: cell-based; details: 3 μM/L, 24 hours, vs DMSO
Protocol: 5.2 After being treated with 3 μM/L GZD824 and DMSO for 24 hours, NALM6 cells were collected to 1 ml TRIzol to extract RNA and reversely transcribed into cDNA. The expressions of four genes, i.e. BCL-XL, CCND1, CDK4 and CCKN1A, in these two groups of cells were detected with the fluorescence quantitative PCR method. […] From the molecular perspective, the mechanism of GZD824 killing leukemia cells can be explained. For the experimental results, please refer to FIG. 14.

[1] = test system: primary pre-B ALL PDX in immunodeficient mouse (NSI); assay: PDX mouse model, human CD45 positive cells by flow cytometry; assay type: in vivo; details: vs Imatinib and DMSO
Protocol: 4.1 After administration, PDX mice originated from patient P #1 were executed. The mouse blood was treated with red blood cell lysate to obtain the peripheral blood leukocytes. The mouse spleen was ground with 100 mesh screen to obtain spleen single cells. The marrow cells in the mouse marrow were washed with 1 mL injector to obtain mouse marrow single cells. The obtained mouse peripheral blood leukocytes, mouse spleen single cells and mouse marrow single cells from the above-mentioned steps were stained with anti-CD45-PE antibody and detected with flow cytometry.
(§2) 4.2 Using the same treatment method in FIG. 9, the ratios of CD45 positive cells in mouse blood, spleen and marrow were detected by flow cytometry and the ratios of CD45 positive cells in PDX mouse blood, spleen and marrow originated from different patients (P #1(B), P #2(C), P #3(D)) were obtained by statistical analysis. […] Please refer to FIG. 10 for the results.
4.3 Using the same treatment method in FIG. 9, PDX mice originated from patient P #4 were executed after administration. The ratios of human CD45 positive cells in mouse blood, spleen and marrow were analyzed. […] Please refer to FIG. 11 for the results.
as §2, with “4.4 Using” for “4.2 Using”, “detected with” for “detected by”, “(P #4(F) and” for “(P #1(B),”, “P #5(G))” for “P #2(C), P #3(D))”, “FIG. 12” for “FIG. 10”

[2] = test system: human primary leukemia cells from P #2 PDX mouse; assay: Apoptosis of human primary leukemia cells from P #2 PDX mouse blood, spleen and marrow; assay type: cell-based; details: P #2 PDX cells; 1 μM/L, 24 hours
Protocol: 6.1 Human primary leukemia cells were collected from P #2 PDX mouse blood, spleen and marrow and the leukemia cells originated from these three different mouse organs were co-cultured with 1 μM/L GZD824 or DMSO for 24 hours. The ratios of ANNEXIN V positive cells were analyzed by statistical methods. […] Please refer to FIG. 16 for the results.

[3] = test system: human primary leukemia cells from P #1 PDX mouse spleen; assay: Apoptosis of human primary leukemia cells from P #1 PDX mouse spleen, with and without IGF-1; assay type: cell-based; details: P #1 PDX spleen cells; GZD824 1 μM/L, 24 hours, vs DMSO
Protocol: 6.2 Human primary leukemia cells were extracted from P #1 PDX mouse spleen and co-cultured with DMSO, GZD824 (1 μM/L), IGF-1 (10 ng/mL), or GZD824 (1 μM/L) and IGF-1 (10 ng/mL) for 24 hours. The ratios of ANNEXIN V positive cells were analyzed by statistical methods. […] Please refer to FIG. 17 for the experimental results.

phosphorylated Rb = assay: Western blot of NALM6 cells, phospho-Rb; assay type: cell-based; details: 3 μM/L, 1 μM/L, 24 hours
Protocol: (§3) 5.1. NALM6 cells treated with GZD824 were detected by Western blot method. After treating NALM6 cells with GZD824 of different concentrations (3 μM/L, 1 μM/L) for 24 hours, cells were collected and lysed to extract proteins. According to procedure of Western blot method, the extracted total proteins were analyzed with phospho-SRC, SRC, phospho-STAT3, STAT3, phospho-Rb, Rb and c-Myc antibodies. […] From the protein perspective, GZD824 kills leukemia cells through suppressing SRC/STAT3 signal pathway. Please refer to FIG. 13 for the experimental results.

[4] = test system: normal B cells from a healthy donor; assay: Apoptosis of B cells from a healthy donor; assay type: cell-based, human; details: 1 μM/L, 24 hours, vs DMSO
Protocol: 2.2 Killing of B cells by GZD824. Marrow puncture sample from normal donator was separated with lymphocyte separation fluid to obtain normal leucocytes, which are separated with magnetic beads to obtain the normal B cells. After co-culturing GZD824 (1 μM/L) with B cells from a healthy donor for 24 hours, the apoptosis is detected with an apoptosis kit (ANNEXIN V, PI).

phosphorylated SRC = assay: Western blot of NALM6 cells, phospho-SRC; assay type: cell-based; details: 3 μM/L, 1 μM/L, 24 hours
Protocol: as §3

[5] = test system: NALM6 (Ph-negative acute lymphoblastic leukemia cell line); assay: CCK8 cell activity test, NALM6; assay type: cell-based; details: GZD824 0-3 μM/L, 24 hours
Protocol: 1.1 Two types of cells, i.e. NALM6 (Ph-negative acute lymphoblastic leukemia cell line) and SUPB15 (Ph-positive acute lymphoblastic leukemia cell line), were treated with GZD824 of different concentrations (0-3 μM/L) respectively. After 24 hours, CCK8 is added. The mixture was incubated for 2 hours, and then its absorption value at 450 nm was detected with a microplate reader. […] We plotted a chart of cell activity based on the growth inhibition function of GZD824 on these […] types of cells, which is as shown in FIG. 1.

phosphorylated STAT3 = assay: Western blot of NALM6 cells, phospho-STAT3; assay type: cell-based; details: 3 μM/L, 1 μM/L, 24 hours
Protocol: as §3

SMILES: Cc1ccc(C(=O)Nc2ccc(CN3CCN(C)CC3)c(C(F)(F)F)c2)cc1C#Cc1cnc2[nH]ncc2c1 [GZD824, (3-((1H-pyrazol[3,4-b]pyridine-5-substituted)ethinyl)-4-methyl-N-(4-((4-methylpiperazine-1-substituted)methyl)-3-(trifluoromethyl)phenyl)benzamide)]
- apoptosis (ANNEXIN V positive cells) (SUPB15 cells): prominently enhance apoptosis
- apoptosis (ANNEXIN V positive cells) (NALM6 cells; 3 μM, 1 μM, vs DMSO): prominently enhance apoptosis
- ratio of apoptosis (ANNEXIN V positive cells), comparison of inhibitors (NALM6 cells; GZD824 vs KX2-391 vs HO-3867 vs DMSO): highest ratio of apoptosis
- expression of BCL-XL gene (BCL-XL gene expression): down-regulated
- ratio of human CD45 positive cells in mouse blood, spleen and marrow ([1]; PDX patient P #1, flow pattern): prominently decrease the ratio of human CD45 positive cells in mouse blood, spleen and marrow
- ratio of human CD45 positive cells in mouse blood ([1]; PDX patient P #4): prominently decrease the ratio of human CD45 positive cells in mouse blood
- ratios of human CD45 positive cells in mouse blood, spleen and marrow ([1]; PDX patients P #1, P #2, P #3, statistical analysis): prominently decrease the ratios of human CD45 positive cells in mouse blood, spleen and marrow
- ratio of human CD45 positive cells in mouse blood ([1]; PDX patients P #4 and P #5, statistical analysis): prominently decrease the ratio of human CD45 positive cells in mouse blood
- ratio of apoptosis of leukemia cells originated from the mouse marrow, compared with blood and spleen [2]: lowest
- apoptosis of primary leukemia cells (ANNEXIN V positive cells) [3]: facilitate apoptosis of the primary leukemia cells
- expression of phosphorylated Rb (phosphorylated Rb): suppresses the expression
- apoptosis of primary B cells [4]: cannot prominently facilitate the apoptosis of the primary B cells
- expression of phosphorylated SRC (phosphorylated SRC): suppresses the expression
- cell activity (CCK8, absorption at 450 nm) [5]: prominently decrease the cell activity
- expression of phosphorylated STAT3 (phosphorylated STAT3): suppresses the expression
